Consider 2 compounds from patent US20100099698A1, “Compositions for Improving Skin Conditions Comprising Matrine or Its Oxidized Derivatives” (Biospectrum Inc., priority 2007, published 2010).

Series [1] relates to B16 mouse melanoma cells. The series is described as follows: Inhibition of melanin production in melanoma cells. The following applies: 72 h, read-out: Inhibitory rate of melanin production (%). The format is cell-based. On the procedure: After measuring the inhibition of melanin production by matrine and oxymatrine using B16 mouse melanoma cells (Korean Cell Line Bank), the measurement was compared with that for the inhibition of melanin production by arbutin, known as a melanin production inhibitor.
B16 mouse melanoma cells F10 (Korean Cell Line Bank) were seeded into each well of a 6-well plate (1×10^5 cells/well) in DMEM (Dulbecco's modified Eagle's media) containing 10% FBS (fetal bovine serum) and the cells were cultured to about more than 80% confluence by incubating in a CO2 incubator under conditions of 37° C. and 5.0% CO2. After cultivation, the medium was removed and samples were replaced in medium diluted at suitable concentration, followed by incubating for 3 days under conditions of 37° C. and 5.0% CO2. […] The cells removing medium were washed with PBS (phosphate buffer saline) and treated with trypsin to collect cells. Number of the collected cells was calculated using hematocytometer (Tiefe Depth Profondeur 0.100 mm, Paul Marienfeld GmbH & Co. KG, D.E), centrifuged at 5,000 to 10,000 rpm for 10 min and the supernatant was eliminated, thereby obtaining pellets. This cell pellets were dried at 60° C., 100 μl of 1M NaOH containing 10% DMSO was added to thereto, and intracellular melanin was obtained in incubator at 60° C. Then, the cell solution was measured for absorbance at 490 nm using microplate reader (Bio-Tek ELx8081U, U.S) and the amount of melanin per cell constant number was estimated.

Series [2] deals with COX (cyclooxygenase). The series is described as follows: COX inhibitory ability in LPS-treated THP-1 cells, [1-14C] arachidonic acid, TLC. Type of series: cell-based, human. To be noted: LPS alone = 100. The method, then: To determine whether matrine and oxymatrine had anti-inflammatory effects, the experiment of COX (cyclooxygenase) inhibitory ability was carried out using human monocytic cell, THP-1 cell (Korean Cell Line Bank) according to conventional method. […] J. Van de Ouderaaa and Muytenhek. THP-1 cell line was cultivated and aliquoted into 24-well plate. The incubation volume per well was adjusted to 500 μl, 2 μl of the sample compound, which dissolved in […] (1 μg/ml, Sigma) and solvents described in the following Table 9 respectively, was added and cultivated for 24-48 hr under the same condition. After 24-48 hr, calcium ionophore (Sigma) and [1-14C] arachidonic acid 1 μl (in EtOH, 0.1 μCi/ml, Sigma) were added to each well, and cultivated for 10 min under the same condition. Following the cultivation, citric acid was added to each well for adjusting to pH 3.5, shaked, each 500 μl of cultivation solution taken from the plate was aliquoted into micro centrifuge tube, 700 μl of ethylacetate was added to thereto, and the solution was shaking extracted for 10 min. 500 μl of ethylacetate layer was concentrated using speed vacuum dryer for 20 min, 20 μl of the residual was dissolved in ethylacetate, and the resultant was employed with authentic standard in TLC plate. The radioactive band was identified by authentic eicosanoid standards, the radioactivity of the identified band was measured using BAS 2000 bio-imaging analyzer (Fuji, JP) (Table 9).

Series [3] in a line: Anti-oxidation: removal of superoxide anion generated by xanthine oxidase (SOD Assay Kit-WST). The format is biochemical. On the procedure:
This experiment evaluates anti-oxidation activity of sample by observing removal of superoxide anion generated by xanthine oxidase. The experiment was performed using the kit (SOD Assay Kit-WST) purchased from Dojindo (JP) in accordance with manufacture's protocol.

In series [4] the test system is pigmentation of skin. The series is described as follows: Skin whitening of UV-induced pigmentation, chromameter L* value. The format is in vivo, brown guinea pigs. To be noted: for Whitening effects (ΔL): topical once or twice a day for 50 days, UV-pigmented abdominal skin. On the procedure:
A whitening effect of matrine and oxymatrine was measured using brown guinea pigs (Charles River Laboratories, Inc.), known to increase its pigmentation upon exposure to ultraviolet light, like in humans. To cause pigmentation in the brown guinea pig by ultraviolet (UV), aluminum foil with square windows of 3×3 cm^2 was adhered to hair-removed abdominal skin of brown guinea pig, and then UV light was irradiated thereon with a SE lamp (wavelength 290-320 nm, Toshiba) (total irradiation energy=1350 mJ/cm^2). After UV irradiation, the aluminum foil was removed and samples (matrine, oxymatrine or albutin) were applied as the following method. […] From the maximum, samples were applied. Applications performed once or twice a day for 50 days. […] The control with only the solvent was applied to another site. Occurrence of cumulative irritation also was examined. The degree of pigmentation of skin was determined using a chromameter (CR2002, MINOLTA, JP) to estimate the effects of applied samples. L*a*b* colorimetric system was used to classify color and L* value was used as standard in the present invention. The L* value was corrected using white board standard and was measured more than five times at one site, repeatedly. Pigmentation was evenly distributed. Skin color differences (ΔL*) between application initial point and application terminal point were obtained and then using these values, their effects of the applied samples were estimated. ΔL*=L* value at […] after application-L* value at application initial day. Equation 1 ΔL* values were obtained both at sample application site and control application site and compared, whereby the effects of the whitening substances can be estimated.

The subject of series [5] is B16 mouse melanoma cells. The series is described as follows: Cytotoxicity at the test concentrations in B16 melanoma cells. Type of series: cell-based. To be noted: 10 μM, 100 μM and 500 μM.
Series [6] concerns Human fibroblasts. The series is described as follows: Cytotoxicity to fibroblasts (MIT reagent, absorbance 540 nm). The format is cell-based. The following applies: 1 μM, 10 μM and 50 μM; compared to RA (retinoic acid); FIG. 1. On the procedure:
Human fibroblasts (commercially available from pacific) were seeded into a 6-well plate (2×10^5 cells/well) and the well plate was incubated in a 5% CO2 incubator for 24 hr at 37° C. After 24 hr, the medium in each well was removed and samples were treated with various concentrations, followed by incubating again for 24 hr. Following incubation, the cell medium was collected and was used as samples. To measure cytotoxicity of samples to fibroblasts, MIT reagent (1 mg/ml) was added to each well in 1/10 fold volume of the remaining medium, incubated for 3 hr and the medium was eliminated. The medium was dissolved in DMSO and its absorbance at 540 nm was measured.

Read-outs that look alike come from different tables or passages of the source.

As to `O=C1CCC[C@@H]2[C@H]3CCC[N+]4([O-])CCC[C@@H](CN12)[C@@H]34` (stereo partly shown) [Oxymatrine, oxymatrine], the inhibition at 10 µM in series [1] (10 μM, 3 days) worked out at 13%. Further, the inhibition at 100 µM in series [1] (100 μM, 3 days) was determined as 27%. For the same compound, in series [1] (500 μM, 3 days), the inhibition at 500 µM came to 31%. Further, the “COX activities (%)” value stood at 94% in series [2] (10 uM with LPS (1 μg/ml)), 81% in series [2] (100 uM with LPS (1 μg/ml)) and 71% in series [2] (500 uM with LPS (1 μg/ml)). Besides, the “Removal rate of superoxide anion (%)” value in series [3] (10 μM) is reported as 4%; in series [3] (100 μM), 17%; in series [3] (500 μM), 32%. In addition, the figures for the “Whitening effects (ΔL)” value in series [4] (0.2 %) and in series [4] (1.0 %) were 0.24 and 0.50, respectively.

On to `O=C1CCC[C@@H]2[C@H]3CCCN4CCC[C@@H](CN12)[C@@H]34` [Matrine, matrine], for which the inhibition at 10 µM in series [1] came to 11%. In addition, the inhibition at 100 µM in series [1] amounted to 31%. The inhibition at 500 µM in series [1] amounted to 39%. Also, in series [5], the cytotoxicity entry is on record as “did not show cytotoxicity”. For the same compound, the “cytotoxicity against human fibroblasts compared to RA” value in series [6] is recorded as “lower cytotoxicity”. The “COX activities (%)” value in series [2] (10 uM with LPS (1 μg/ml)) is given as 98%; in series [2] (100 uM with LPS (1 μg/ml)) it was 87%; in series [2] (500 uM with LPS (1 μg/ml)), 65%. Further, the “Removal rate of superoxide anion (%)” value is 6% in series [3] (10 μM), 12% in series [3] (100 μM) and 24% in series [3] (500 μM). The “Whitening effects (ΔL)” value in series [4] (0.2 %) was 0.38; in series [4] (1.0 %), 0.53. Also, the “Occurrence of cumulative irritation” value in series [4] (brown guinea pig skin, application for 50 days) is “not observing the occurrence of cumulative irritation”.
